Data taken from patent publication US12673944B2, “Compounds having inhibitory activity against glucosylceramide synthase or pharmaceutically acceptable salt thereof, processes for preparing the same, and pharmaceutical compositions comprising the same” (YUHAN CORPORATION, priority 2019, dated 2026).

Key:
[1] = target: T1, glucosylceramide synthase (GCS) (Homo sapiens, UniProt Q16739); test: GCS enzyme inhibition assay (A549 cell lysate, NBD C6-ceramide, HPLC fluorescence); format: biochemical; conditions: inhibitory activity against GCS, 37° C., 90 minutes
T1 construct: The obtained supernatant was used; host or cells: A549 cells (lysate supernatant after sonication)
T1 sequence (Q16739 1-394): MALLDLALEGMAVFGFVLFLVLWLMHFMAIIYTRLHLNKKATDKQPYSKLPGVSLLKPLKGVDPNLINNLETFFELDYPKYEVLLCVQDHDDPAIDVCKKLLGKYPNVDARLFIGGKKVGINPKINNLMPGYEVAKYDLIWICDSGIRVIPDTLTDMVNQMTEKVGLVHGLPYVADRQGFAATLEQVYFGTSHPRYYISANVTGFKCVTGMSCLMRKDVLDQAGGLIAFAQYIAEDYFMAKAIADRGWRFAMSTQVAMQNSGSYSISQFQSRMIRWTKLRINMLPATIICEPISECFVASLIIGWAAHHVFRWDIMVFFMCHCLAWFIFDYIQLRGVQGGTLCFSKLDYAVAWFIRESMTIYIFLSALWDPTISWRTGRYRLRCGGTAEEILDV
Summary of the method: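 A549 cell lysate (50 mM HEPES pH 7.3) served as GCS source; reactions ran 90 min at 37° C, were stopped with chloroform/methanol and lipids extracted. Activity taken as GlcCer/(Cer+GlcCer) peak area, normalised between DMSO and ibiglustat controls.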

[2] = test system: GM1 production in Jurkat cells; test: cells; format: cell-based; conditions: Homo sapiens, Jurkat, 72 h

SMILES	IC50 [1]	IC50 [2]
CC1(C)COc2cc(-c3cccc(C(F)F)c3)ccc2C1NC(=O)O[C@@H]1CN2CCC1CC2 (stereo partly drawn) [Example 112, (S)-quinuclidin-3-yl (7-(3-(difluoromethyl)phenyl)-3,3-dimethylchroman-4-yl)carbamate]	0.53 nM	0.55 nM
O=C(NC1CCOc2cc(-c3c[nH]c4ccccc34)ccc21)O[C@@H]1CN2CCC1CC2 (stereo partly drawn) [Example 46, (S)-quinuclidin-3-yl (7-(1H-indol-3-yl)chroman-4-yl)carbamate]	4.08 nM	20.5 nM
Cc1cc(-c2ccc3c(c2)OCC(C)(C)C3NC(=O)O[C@@H]2CN3CCC2CC3)ccc1F (stereo partly drawn) [Example 229, (S)-quinuclidin-3-yl (7-(4-fluoro-3-methylphenyl)-3,3-dimethylchroman-4-yl)carbamate]	0.71 nM	2.1 nM
C=CCc1ccccc1-c1ccc2c(c1)OCC(C)(C)C2NC(=O)O[C@@H]1CN2CCC1CC2 (stereo partly drawn) [Example 279, (S)-quinuclidin-3-yl (7-(2-allylphenyl)-3,3-dimethylchroman-4-yl)carbamate]	0.73 nM	6.2 nM
CCc1ccc(-c2cc3c(cc2F)C(NC(=O)O[C@@H]2CN4CCC2CC4)C(C)(C)CO3)cc1 (stereo partly drawn) [Example 334, (S)-quinuclidin-3-yl (7-(4-ethylphenyl)-6-fluoro-3,3-dimethylchroman-4-yl)carbamate]	0.33 nM	0.4 nM
COCCOc1ccc(-c2ccc3c(c2)OCC(C)(C)C3NC(=O)O[C@@H]2CN3CCC2CC3)cc1 (stereo partly drawn) [Example 111, (S)-quinuclidin-3-yl (7-(4-(2-methoxyethoxy)phenyl)-3,3-dimethylchroman-4-yl)carbamate]	1.93 nM	1.27 nM
COc1ccc(-c2ccc3c(c2)OCC(C)(C)C3NC(=O)O[C@@H]2CN3CCC2CC3)cc1OC (stereo partly drawn) [Example 128, (S)-quinuclidin-3-yl (7-(3,4-dimethoxyphenyl)-3,3-dimethylchroman-4-yl)carbamate]	2.84 nM	23.2 nM
COc1ccc(-c2ccc3c(c2)OCC(C)(C)C3NC(=O)O[C@@H]2CN3CCC2CC3)cc1F (stereo partly drawn) [Example 118, (S)-quinuclidin-3-yl (7-(3-fluoro-4-methoxyphenyl)-3,3-dimethylchroman-4-yl)carbamate]	1.63 nM	3.63 nM
CCCCc1ccc(-c2cc3c(cc2F)C(NC(=O)O[C@@H]2CN4CCC2CC4)C(C)(C)CO3)cc1 (stereo partly drawn) [Example 343, (S)-quinuclidin-3-yl (7-(4-butylphenyl)-6-fluoro-3,3-dimethylchroman-4-yl)carbamate]	0.12 nM	0.1 nM
CC(C)(C)OCc1ccc(-c2ccc3c(c2)OCC(C)(C)C3NC(=O)O[C@@H]2CN3CCC2CC3)cc1 (stereo partly drawn) [Example 141, (S)-quinuclidin-3-yl (7-(4-(tert-butoxymethyl)phenyl)-3,3-dimethylchroman-4-yl)carbamate]	0.19 nM	0.2 nM
O=C(NC1CCOc2cc(-c3ccc4c(c3)OCCO4)ccc21)O[C@@H]1CN2CCC1CC2 (stereo partly drawn) [Example 37, (S)-quinuclidin-3-yl (7-(2,3-dihydrobenzo[b][1,4]dioxin-6-yl)chroman-4-yl)carbamate]	1.4 nM	9.47 nM
O=C(NC1CCOc2ccc(-c3ccc(C(F)(F)F)cc3)cc21)O[C@@H]1CN2CCC1CC2 (stereo partly drawn) [Example 91, (S)-quinuclidin-3-yl (6-(4-(trifluoromethyl)phenyl)chroman-4-yl)carbamate]	5.38 nM	171 nM
CC1(C)COc2cc(-c3cc(F)ccc3F)ccc2C1NC(=O)O[C@@H]1CN2CCC1CC2 (stereo partly drawn) [Example 234, (S)-quinuclidin-3-yl (7-(2,5-difluorophenyl)-3,3-dimethylchroman-4-yl)carbamate]	0.4 nM	1.1 nM
CC1(C)COc2cc(-c3ccc(F)c(C(F)(F)F)c3)ccc2C1NC(=O)O[C@@H]1CN2CCC1CC2 (stereo partly drawn) [Example 175, (S)-quinuclidin-3-yl (7-(4-fluoro-3-(trifluoromethyl)phenyl)-3,3-dimethylchroman-4-yl)carbamate]	0.71 nM	2.2 nM
CC1(C)COc2cc(-c3cc(C(F)(F)F)ccc3Cl)ccc2C1NC(=O)O[C@@H]1CN2CCC1CC2 (stereo partly drawn) [Example 139, (S)-quinuclidin-3-yl (7-(2-chloro-5-(trifluoromethyl)phenyl)-3,3-dimethylchroman-4-yl)carbamate]	0.62 nM	0.3 nM
CN1CCOc2cc(-c3ccc4c(c3)OCCC4NC(=O)O[C@@H]3CN4CCC3CC4)ccc21 (stereo partly drawn) [Example 63, (S)-quinuclidin-3-yl (7-(4-methyl-3,4-dihydro-2H-benzo[b][1,4]oxazin-7-yl)chroman-4-yl)carbamate]	1.33 nM	27 nM

SMILES	IC50 [1]	IC50 [2]
CC(C)COc1ccc(-c2cc3c(cc2F)C(NC(=O)O[C@@H]2CN4CCC2CC4)C(C)(C)CO3)cc1 (stereo partly drawn) [Example 347, (S)-quinuclidin-3-yl (6-fluoro-7-(4-isobutoxyphenyl)-3,3-dimethylchroman-4-yl)carbamate]	0.23 nM	0.02 nM
O=C(NC1CCOc2ccc(-c3ccccc3Cl)cc21)O[C@@H]1CN2CCC1CC2 (stereo partly drawn) [Example 90, (S)-quinuclidin-3-yl (6-(2-chlorophenyl)chroman-4-yl)carbamate]	4.27 nM	141 nM
CCOc1ccc(-c2cc3c(cc2OC)C(NC(=O)O[C@@H]2CN4CCC2CC4)C(C)(C)CO3)cc1 (stereo partly drawn) [Example 356, (S)-quinuclidin-3-yl (7-(4-ethoxyphenyl)-6-methoxy-3,3-dimethylchroman-4-yl)carbamate]	0.48 nM	3.4 nM
COCCOc1cccc(-c2ccc3c(c2)OCCC3NC(=O)O[C@@H]2CN3CCC2CC3)c1 (stereo partly drawn) [Example 8, (S)-quinuclidin-3-yl (7-(3-(2-methoxyethoxy)phenyl)chroman-4-yl)carbamate]	0.48 nM	3.59 nM
CN1C(=O)COc2ccc(-c3ccc4c(c3)OCC(C)(C)C4NC(=O)O[C@@H]3CN4CCC3CC4)cc21 (stereo partly drawn) [Example 216, (S)-quinuclidin-3-yl (3,3-dimethyl-7-(4-methyl-3-oxo-3,4-dihydro-2H-benzo[b][1,4]oxazin-6-yl)chroman-4-yl)carbamate]	1.51 nM	8.58 nM
CSc1cccc(-c2ccc3c(c2)SCCC3NC(=O)O[C@@H]2CN3CCC2CC3)c1 (stereo partly drawn) [Example 325, (S)-quinuclidin-3-yl (7-(3-(methylthio)phenyl)thiochroman-4-yl)carbamate]	0.58 nM	6.13 nM
COc1cncc(-c2ccc3c(c2)OCCC3NC(=O)O[C@@H]2CN3CCC2CC3)c1 (stereo partly drawn) [Example 79, (S)-quinuclidin-3-yl (7-(5-methoxypyridin-3-yl)chroman-4-yl)carbamate]	2.57 nM	33.4 nM
Cc1ccc(-c2ccc3c(c2)OCC(C)(C)C3NC(=O)O[C@@H]2CN3CCC2CC3)cc1F (stereo partly drawn) [Example 228, (S)-quinuclidin-3-yl (7-(3-fluoro-4-methylphenyl)-3,3-dimethylchroman-4-yl)carbamate]	0.55 nM	1.3 nM
CCOc1ccc(-c2ccc3c(c2)OCCC3NC(=O)O[C@@H]2CN3CCC2CC3)cc1 (stereo partly drawn) [Example 22, (S)-quinuclidin-3-yl (7-(4-ethoxyphenyl)chroman-4-yl)carbamate]	4 nM	34.2 nM
CC1(C)COc2cc(-c3coc4ccccc34)ccc2C1NC(=O)O[C@@H]1CN2CCC1CC2 (stereo partly drawn) [Example 147, (S)-quinuclidin-3-yl (7-(benzofuran-3-yl)-3,3-dimethylchroman-4-yl)carbamate]	0.4 nM	1 nM
COc1cccc(-c2ccc3c(c2)OCC(C)(C)C3NC(=O)O[C@@H]2CN3CCC2CC3)c1Cl (stereo partly drawn) [Example 176, (S)-quinuclidin-3-yl (7-(2-chloro-3-methoxyphenyl)-3,3-dimethylchroman-4-yl)carbamate]	0.59 nM	3.2 nM
O=C(NC1CCOc2cc(-c3ccc(C4CCOCC4)cc3)ccc21)O[C@@H]1CN2CCC1CC2 (stereo partly drawn) [Example 73, (S)-quinuclidin-3-yl (7-(4-(tetrahydro-2H-pyran-4-yl)phenyl)chroman-4-yl)carbamate]	1.47 nM	28.2 nM
CC1(C)COc2cc(-c3ccc(-c4ccccc4)cc3)ccc2C1NC(=O)O[C@@H]1CN2CCC1CC2 (stereo partly drawn) [Example 242, (S)-quinuclidin-3-yl (7-([1,1′-biphenyl]-4-yl)-3,3-dimethylchroman-4-yl)carbamate]	0.53 nM	3.8 nM
O=C(NC1CCOc2cc(-c3ccc4c(c3)CCCO4)ccc21)O[C@@H]1CN2CCC1CC2 (stereo partly drawn) [Example 70, (S)-quinuclidin-3-yl [6,7′-bichroman]-4′-ylcarbamate]	0.59 nM	5.78 nM
CC1(C)COc2cc(-c3ccccc3Cl)ccc2C1NC(=O)O[C@@H]1CN2CCC1CC2 (stereo partly drawn) [Example 169, (S)-quinuclidin-3-yl (7-(2-chlorophenyl)-3,3-dimethylchroman-4-yl)carbamate]	0.37 nM	0.25 nM
CCOc1cccc(-c2ccc3c(c2)OCC(C)(C)C3NC(=O)O[C@@H]2CN3CCC2CC3)c1 (stereo partly drawn) [Example 158, (S)-quinuclidin-3-yl (7-(3-ethoxyphenyl)-3,3-dimethylchroman-4-yl)carbamate]	0.42 nM	1.5 nM
